Publication PMC8113459, “Selective inhibition of cullin 3 neddylation through covalent targeting DCN1 protects mice from acetaminophen-induced liver toxicity” (Nature Communications, 2021)

Legend:
[1] = biological target: DCN3 protein (Homo sapiens, UniProt Q8IWE4); experiment: Intact-protein mass spectrometric analysis, Method B (DCN3); type: binding; details: 3 h incubation
Experimental: Method B: Recombinant DCN1 or DCN3 protein (100 nM in 25 mM Tris 7.5, 200 mM NaCl, 1 mM DTT buffer) was incubated with 1.2-fold excess of the DCN1 inhibitors at 37 °C for 10 min, 1 h, or 3 h. Following incubation, the protein was analyzed by LC–MS (Agilent Q-TOF 6545) under the following conditions: fragmentor voltage, 300 V; skimmer voltage, 75 V; nozzle voltage, 100 V; sheath gas temperature, 350 °C; and drying gas temperature, 325 °C. MassHunter Qualitative Analysis software (Agilent) was used to analyze the data. Intact protein masses were obtained using the maximum entropy deconvolution algorithm. The mass spectrometry data in Supplementary Figs. 14–17 were generated by Method B.

[2] = tested on: KEAP1 and p62 proteins; experiment: Western blot, KEAP1 and p62 in U2OS and THLE2 cells; type: cell-based, human; details: 6 h
Experimental: Western blotting was performed as described previously. Treated cells were lysed by RIPA buffer supplemented with protease inhibitor. The expression level of indicated proteins was examined by immunoblotting analysis and GAPDH was used as the loading control. Antibodies were purchased commercially: cullin 1 (sc-17775, 1:500 dilution) and cullin 2 (sc-166506, 1:500 dilution) from Santa Cruz Biotech (Santa Cruz, CA); cullin 4A (PA5-14542, 1:1000 dilution), cullin 4B (PA5-50647, 1:1000 dilution), and DCN3 (DCUN1D3, PA5-44000, 1:1000 dilution) from Thermo Fisher Scientific (Wayne, MI); cullin 3 (2759, 1:1000), NRF2 (12721, 1:1000 dilution), HO-1 (70081, 1:1000 dilution), and Bim (2819, 1:1000 dilution) from Cell Signaling Technology (Boston, MA); DCN1 (GWB-E3D700, 1:1000 dilution) from GenWay Biotech (San Diego, CA); and cullin 5 (A302-173A, 1:500 dilution) from Bethyl Labs (Montgomery, TX). Results are representative of two independent experiments.
Supplementary Figure 22. Western blotting analysis of Keap1 and p62 in U2OS cells (a) and […]
The cells were treated with compounds as indicated for 6 h. Treated cells were harvested and lysed with RIPA buffer. The expression of P62 and Keap1 were examined by western blotting analysis. Antibody information:
Keap1 (cst, #8047), P62 (cst,#5114). GAPDH was used as a loading control. Representative images of two independent experiments are shown. […]

[3] = biological target: DCN1 (Homo sapiens, UniProt Q96GG9); experiment: Cocrystal structures of lyso-DCN1-inhibitor complexes; design: to DCN1 residues 62–251; His6 (N); TEV cleavage site (N); lysozyme residues 1–164 with C54T, C97A, A146T, D127A, R154A (fusion partner, N-terminal of DCN1); made in house; host or cells: Rosetta 2 cells (E. coli)
DCN1, sequence (Q96GG9 62-251): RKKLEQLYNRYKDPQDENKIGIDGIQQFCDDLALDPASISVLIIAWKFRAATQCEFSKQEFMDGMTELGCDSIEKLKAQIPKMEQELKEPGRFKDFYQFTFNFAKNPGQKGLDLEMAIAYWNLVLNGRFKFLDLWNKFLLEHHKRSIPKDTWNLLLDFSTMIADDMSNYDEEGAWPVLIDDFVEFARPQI
Experimental: Lysozyme–DCN1 gene was synthesized fusing lysozyme residues 1–164, containing mutations (C54T, C97A, A146T, D127A, and R154A), to DCN1 residues 62–251. Ligation independent cloning was utilized to clone the fused gene into an N-terminal His6–TEV expression vector. The clone was transformed into Rosetta 2 cells, grown in terrific broth at 37 °C, and expressed overnight with 0.4 mM isopropyl β-D-1-thiogalactopyranoside at 20 °C. Pelleted cells were freeze-thawed and lysed in 25 mM HEPES, pH 7.5, 150 mM NaCl, 0.1% β-mercaptoethanol and protease inhibitors. Cellular debris was removed via centrifugation. The supernatant was loaded onto a Ni-NTA (Qiagen) column at 4 °C. The column was washed with 25 mM HEPES, pH 7.5, 150 mM NaCl, and 20 mM imidazole, then protein eluted with buffer containing 300 mM imidazole. The eluate was applied to a Superdex 200 (GE Healthcare) equilibrated with 25 mM HEPES, pH 7.5, 200 mM NaCl, and 1 mM DTT. The protein was judged to be greater than 95% pure by SDS-PAGE, concentrated to 3.5 mg/mL and stored at −80 °C. Yield was 450 mg/L of expressed media.
Lyso–DCN1 protein was thawed and concentrated to 9.9 mg/mL in 25 mM HEPES, pH 7.5, 200 mM NaCl, and 1 mM DTT. Each compound was incubated with protein in a 1:1.2 protein to compound molar ratio overnight at 4 °C, then spun and setup in sitting drop vapor diffusion experiments. Crystallization drops contained 2 µL of protein–inhibitor solution and 1 µL of well solution. Crystals grew at 20 °C with well solution containing 28–33% PEG 3350 and 200 mM ammonium formate. Crystals were cryoprotected in 25 mM HEPES, pH 7.5, 200 mM NaCl, 30% PEG 3350, and 1 mM DTT.
Diffraction data were collected at a wavelength of 0.9786 Å on the APS LS-CAT 21-ID-G beamline at Argonne National Laboratory. Data were processed using HKL2000[44] and solved via molecular replacement using molrep[45] with two independent search models (lysozyme and DCN1) from PDB ID 5V83. The structures were iteratively fit and refined using Coot[46] and Buster[47]. […]

DCN3 protein, sequence (Q8IWE4 86-304 limits assumed): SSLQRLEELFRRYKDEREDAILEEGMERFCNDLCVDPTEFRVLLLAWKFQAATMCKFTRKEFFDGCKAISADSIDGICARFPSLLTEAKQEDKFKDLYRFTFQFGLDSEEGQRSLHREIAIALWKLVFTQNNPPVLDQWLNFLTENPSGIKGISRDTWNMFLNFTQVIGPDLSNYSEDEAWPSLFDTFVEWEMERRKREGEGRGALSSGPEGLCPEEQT

Structure (SMILES) | covalent complex formation with DCN3 [1] | effect on protein levels of KEAP1 and p62 [2] | covalent bond to Cys115 of DCN1 in the cocrystal structure [3]
C=C(CN1CCOCC1)C(=O)NC[C@@H](NC(=O)[C@H](Cc1nc2ccc(C(C)C)cc2s1)NC(=O)CC)C1CCCCC1 [DI-1548] | fail to form any detectable complex | no obvious effect | confirmed the covalent nature of these complexes
C=C(CN(C)C)C(=O)NC[C@@H](NC(=O)[C@H](Cc1nc2ccc(C(C)C)cc2s1)NC(=O)CC)C1CCCCC1 [DI-1859] | fail to form any detectable complex | no obvious effect | confirmed the covalent nature of these complexes
